Measurements published in article PMC3222648, “Inotropic Action of the Puberty Hormone Kisspeptin in Rat, Mouse and Human: Cardiovascular Distribution and Characteristics of the Kisspeptin Receptor” (PLoS ONE, 2011).
“Also recorded” adds a separate entry of the source. Where no end group is shown, it is not given here.

Columns and labels:
kisspeptin receptor [1] = target: kisspeptin receptor (Rattus norvegicus, UniProt Q924U1); assay: Inotropic activity in rat paced paired atria; set-up: Paired rat or mouse atria; from tissue; host or cells: rat paired atria
kisspeptin receptor (Rattus norvegicus, UniProt Q924U1), sequence (Q924U1 whole entry): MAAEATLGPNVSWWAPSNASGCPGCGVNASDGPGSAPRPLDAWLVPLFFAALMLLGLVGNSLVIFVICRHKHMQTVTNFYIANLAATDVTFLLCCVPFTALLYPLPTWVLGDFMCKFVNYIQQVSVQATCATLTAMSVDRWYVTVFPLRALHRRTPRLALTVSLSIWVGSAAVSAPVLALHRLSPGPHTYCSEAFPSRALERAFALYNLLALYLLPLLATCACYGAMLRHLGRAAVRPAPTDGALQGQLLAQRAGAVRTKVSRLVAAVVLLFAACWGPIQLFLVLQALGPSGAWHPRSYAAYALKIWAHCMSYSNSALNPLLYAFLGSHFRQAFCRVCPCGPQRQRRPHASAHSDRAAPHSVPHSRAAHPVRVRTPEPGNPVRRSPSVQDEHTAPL
Description: (§1) Paired rat or mouse atria, or 4 mm strips of human atrial appendage, were mounted in 10 ml organ baths containing oxygenated Krebs solution at 37°C as described previously. […] Experiments were terminated by the addition of 6.7 mM CaCl2 (final bath concentration 8.95 mM) and responses expressed as a % of this CaCl2 maximum. Radioligand binding study data were analyzed using the iterative, non-linear curve fitting programs EBDA and LIGAND in the KELL package (Biosoft, Cambridge, UK). Pooled KD, BMAX and Hill slopes (nH) were expressed as mean±SEM and normalized to protein concentrations. […] Where appropriate, values were compared by one-way analysis of variance (ANOVA). In all cases P<0.05 was considered statistically significant and n-values were the number of animals or patients from which data were obtained.

kisspeptin receptor [2] = target: T1, kisspeptin receptor (Mus musculus, UniProt Q91V45); assay: Inotropic activity in mouse paced atria, wild type (Kiss1r ^+/+); conditions: % of CaCl2 maximum (8.95 mM final), mean ± SEM, n = 6, read-out: Emax (maximum positive inotropic response)
T1 construct: Paired rat or mouse atria; from tissue; host or cells: mouse paired atria, wild type
T1 sequence (Q91V45 whole entry): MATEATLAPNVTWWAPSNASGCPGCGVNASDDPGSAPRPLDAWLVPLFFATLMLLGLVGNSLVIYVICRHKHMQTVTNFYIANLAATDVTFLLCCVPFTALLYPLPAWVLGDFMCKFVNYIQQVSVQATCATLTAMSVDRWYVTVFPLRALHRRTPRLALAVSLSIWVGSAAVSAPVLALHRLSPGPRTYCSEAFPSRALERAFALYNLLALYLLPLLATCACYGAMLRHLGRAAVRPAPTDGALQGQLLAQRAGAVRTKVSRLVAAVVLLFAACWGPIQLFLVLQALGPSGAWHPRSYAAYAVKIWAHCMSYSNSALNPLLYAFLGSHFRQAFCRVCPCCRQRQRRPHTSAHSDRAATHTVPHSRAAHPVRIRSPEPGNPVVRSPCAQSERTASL
Description: (§2) Paired rat or mouse atria, or 4 mm strips of human atrial appendage, were mounted in 10 ml organ baths containing oxygenated Krebs solution at 37°C as described previously. Tension on the tissue was adjusted to 50% of that at which the maximum force was generated and then paced at 1 Hz, square-wave pulse, 5 ms duration, with the voltage just above threshold (<4.0 V). […] Experiments were terminated by the addition of 6.7 mM CaCl2 (final bath concentration 8.95 mM) and responses expressed as a % of this CaCl2 maximum.
(§3) Radioligand binding study data were analyzed using the iterative, non-linear curve fitting programs EBDA and LIGAND in the KELL package (Biosoft, Cambridge, UK). Pooled KD, BMAX and Hill slopes (nH) were expressed as mean±SEM and normalized to protein concentrations. In vitro pharmacology data agonist responses were expressed as %CaCl2 response in the paced atrial tissues and %KCl in the vasoconstrictor studies and data were fitted to a four parameter logistic equation using an iterative curve-fitting program (FigSys, Biosoft, Cambridge, UK) to obtain values for potency (pD2: the negative logarithm to the base 10 of the EC50) and maximum response (EMAX: %CaCl2 or %KCl, respectively) expressed as mean±SEM. Where appropriate, values were compared by one-way analysis of variance (ANOVA). […]

kisspeptin receptor [3] = target: T2, kisspeptin receptor (Homo sapiens, UniProt Q969F8); assay: Inotropic activity in human paced atrial strips; conditions: human atrial strips
T2 construct: cryostat-cut sections of human (15 µm) or rat (10 µm) heart; from tissue; host or cells: human right atria (control, dilated cardiomyopathy, ischaemic heart disease), cryostat sections
T2 sequence (Q969F8 whole entry): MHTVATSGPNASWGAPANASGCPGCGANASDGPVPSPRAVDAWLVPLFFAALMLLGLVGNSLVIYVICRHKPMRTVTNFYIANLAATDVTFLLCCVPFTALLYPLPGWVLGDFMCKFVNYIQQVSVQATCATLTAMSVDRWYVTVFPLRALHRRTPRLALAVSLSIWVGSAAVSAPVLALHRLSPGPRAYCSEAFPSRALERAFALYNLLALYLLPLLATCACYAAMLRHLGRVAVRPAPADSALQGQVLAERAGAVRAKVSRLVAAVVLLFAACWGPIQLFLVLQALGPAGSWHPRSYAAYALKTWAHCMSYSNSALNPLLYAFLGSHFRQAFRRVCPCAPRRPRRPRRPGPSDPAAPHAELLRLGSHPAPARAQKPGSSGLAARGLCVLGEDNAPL
Description: as §1

Kiss1r ^−/− atria = assay: Inotropic activity in atria of mice with targeted disruption of Kiss1r; set-up: species or system mouse
Description: as §2, §3

[4] = test system: endothelium-denuded rat aortic rings; assay: Vasoconstrictor activity in endothelium-denuded rat aorta; conditions: mean ± SEM, ET-1 n = 7, KP-10 tissues from 4 animals, KP-54 tissues from 3 animals
Description: Rat thoracic aorta was cleaned of connective tissue and cut into 4 mm rings and the endothelial layer removed by gentle rubbing. Tissues were set to a basal tension at which the maximum response to 100 mM KCl was generated and subsequent responses to kisspeptins were expressed as % of this KCl response. Aortic rings were then contracted with 10 µM phenylephrine and 1 µM ACh was added; a reduction in the phenylephrine response of <10% was taken as evidence of removal of endothelium. […] Experiments were terminated by the addition of 100 mM KCl and agonist responses were expressed as a % of this KCl maximum.
Radioligand binding study data were analyzed using the iterative, non-linear curve fitting programs EBDA and LIGAND in the KELL package (Biosoft, Cambridge, UK). Pooled KD, BMAX and Hill slopes (nH) were expressed as mean±SEM and normalized to protein concentrations. In vitro pharmacology data agonist responses were expressed as %CaCl2 response in the paced atrial tissues and %KCl in the vasoconstrictor studies and data were fitted to a four parameter logistic equation using an iterative curve-fitting program (FigSys, Biosoft, Cambridge, UK) to obtain values for potency (pD2: the negative logarithm to the base 10 of the EC50) and maximum response (EMAX: %CaCl2 or %KCl, respectively) expressed as mean±SEM. Where appropriate, values were compared by one-way analysis of variance (ANOVA). In all cases P<0.05 was considered statistically significant and n-values were the number of animals or patients from which data were obtained.

[5] = ref [47]; cited from earlier work
[6] = test system: human coronary artery and umbilical vein; conditions: ref [31]; cited from earlier work
Description: We have recently identified a further role for kisspeptin as a vasoactive peptide. We detected kisspeptin and kisspeptin receptor expression in human vasculature, and intriguingly found this to be restricted to the aorta, coronary artery and umbilical vein, vessels with the same developmental origin. […] However, to our knowledge, a cardiac role of kisspeptin has not yet been investigated in man, nor any cardiovascular effects ...

Compound | lusitropic effects (kisspeptin receptor [1]; rat atria, half time to peak force and half time to relaxation) | Emax (kisspeptin receptor [1]; read-out: EMAX (maximum positive inotropic response)) | Emax (kisspeptin receptor [2]) | Emax (kisspeptin receptor [3]; % of CaCl2 maximum (8.95 mM final), mean ± SEM, n = 5, read-out: EMAX (maximum positive inotropic response)) | lusitropic effects (kisspeptin receptor [3]; half time to peak force and half time to relaxation) | inotropic response in Kiss1r ^−/− atria (Kiss1r ^−/− atria) | EMAX (maximum vasoconstrictor response) ([4]; % of 100 mM KCl maximum, endothelium-denuded rat aorta) | pD2 (vasoconstriction) ([4]; endothelium-denuded rat thoracic aortic rings, KP-10, KP-54 10^−12–3×10^−9 M, ET-1 10^−10–3×10^−7 M) | anti-angiogenic activity [5] | vasoconstrictor activity [6]
CC[C@H](C)[C@H](NC(=O)[C@H](CCC(N)=O)NC(=O)[C@H](CCCNC(=N)N)NC(=O)[C@H](CO)NC(=O)[C@H](Cc1c[nH]cn1)NC(=O)[C@@H]1CCCN1C(=O)[C@H](C)NC(=O)[C@H](CO)NC(=O)[C@H](CC(C)C)NC(=O)CNC(=O)[C@@H]1CCCN1C(=O)[C@H](CCC(N)=O)NC(=O)[C@H](CCC(N)=O)NC(=O)[C@H](CCCNC(=N)N)NC(=O)[C@H](CO)NC(=O)CNC(=O)[C@H](CO)NC(=O)[C@H](CO)NC(=O)[C@H](CCC(=O)O)NC(=O)[C@@H]1CCCN1C(=O)[C@@H]1CCCN1C(=O)[C@@H]1CCCN1C(=O)[C@H](CO)NC(=O)[C@H](CC(C)C)NC(=O)[C@H](CO)NC(=O)[C@@H](NC(=O)CN)[C@@H](C)O)C(=O)N1CCC[C@H]1C(=O)N[C@@H](C)C(=O)N1CCC[C@H]1C(=O)N[C@@H](CCC(N)=O)C(=O)NCC(=O)N[C@@H](C)C(=O)N[C@H](C(=O)N[C@@H](CC(C)C)C(=O)N[C@H](C(=O)N[C@@H](CCC(N)=O)C(=O)N[C@@H](CCCNC(=N)N)C(=O)N[C@@H](CCC(=O)O)C(=O)N[C@@H](CCCCN)C(=O)N[C@@H](CC(=O)O)C(=O)N[C@@H](CC(C)C)C(=O)N1CCC[C@H]1C(=O)N[C@@H](CC(N)=O)C(=O)N[C@@H](Cc1ccc(O)cc1)C(=O)N[C@@H](CC(N)=O)C(=O)N[C@@H](Cc1c[nH]c2ccccc12)C(=O)N[C@@H](CC(N)=O)C(=O)N[C@@H](CO)C(=O)N[C@@H](Cc1ccccc1)C(=O)NCC(=O)N[C@@H](CC(C)C)C(=O)N[C@@H](CCCNC(=N)N)C(=O)N[C@@H](Cc1ccccc1)C(N)=O)C(C)C)C(C)C [KP-54] | Lusitropic effects were not observed | 14 ± 2% | 26 ± 4% | 82 ± 13% | Lusitropic effects were not observed | lack of effect; also recorded: no inotropic response | 97±1 % KCl | 10.47±0.26 | anti-angiogenic | 
kisspeptin: Kisspeptin, or KP-54; also used generically for the endogenous peptides and kisspeptin-like immunoreactivity (GTSLSPPPESSGSPQQPGLSAPHSRQIPAPQGAVLVQREKDLPNYNWNSFGLRF; ends and bridges not checked; UniProt Q15726 68-121, looked up) |  |  |  |  |  | No response |  |  |  | potent vasoconstrictor
